Assay results published in patent US20230012172A1, “COMPOSITIONS AND METHODS FOR TREATMENT OF PLATINUM-BASED CHEMOTHERAPEUTIC RESISTANT TUMORS” (The George Washington University, priority 2020, published 2023).
pIC50: −log10 of the molar value. Values belong to the compound of their own block, whether it stands above or below them.

How the values were obtained:
[1] = tested on: SENP1; assay: SENP1 IHC in IGROV1 xenograft tumors of carboplatin-treated mice; assay type: in vivo, immunodeficient nude mice; details: carboplatin 20 mg/kg or 60 mg/kg
Method: (§1) The SENP1 protein level was increased while JAK2 SUMOylation was decreased correspondingly in IGROV1 cells treated with cisplatin in a time and dose dependent manner (FIGS. 4F and 4G). To further test the SENP1 induction by platinum drugs in vivo, SENP1 protein levels were measured in IGROV1 xenograft tumors using immunohistochemistry (IHC) in implanted immunodeficient nude mice that were treated with carboplatin at 20 mg/kg or 60 mg/kg after tumor was developed.
Immunohistochemistry. Immunohistochemical (IHC) staining and scoring were performed similar to that previously described n Zhou et al., (2018) Oncogene 37, 3981-3997, the disclosure of which is incorporated herein in its entirety. The quantification of immunohistochemical staining was scored blindly at least by two independent observers.

[2] = tested on: IGROV1 CR cells; assay: Cell viability assay (SRB) in IGROV1 CR cells; assay type: cell-based, human; details: for toxicity (cell viability): 150 nM, IGROVI CR cells
Method: (§2) Cell culture and resistance cell line establishment. IGROV1 cells, U2OS (HTB-96; ATCC), HEK293T (CRL-11268; ATCC) and SKOV3 cells (HTB-77; ATCC) were cultured at 37° C. in DMEM with 10% Fetal Bovine Serum (FBS). PEO1 (10032308; Sigma-Aldrich), PEO4 (10032309; Sigma-Aldrich), PEO14 (10032311; Sigma-Aldrich) and PE023 cells (10032313; Sigma-Aldrich) were cultured at 37° C. in RPMI-1640 with 10% FBS. OV90 (CRL-11732; ATCC) was cultured in medium containing 1:1 MCDB 105 (Sigma) and M199 (Sigma) supplemented with 10% FBS at 37 ° C. All the cells were cultured at in a humidified incubator with 5% CO2 atmosphere. Cisplatin resistant cell lines, including SKOV3 CR, IGROV1 CR and OV90 CR, were generated using an approach similar to that reported in Zhou et al., (2018) Oncogene 37, 3981-3997, the disclosure of which is incorporated herein in its entirety.
Cell viability assay. Cells were seeded at 3,000 cells/well in 96-well plates were treated with drugs, followed by incubation for 48 hours, after which cell viability was detected using Sulforhodamine B (SRB) assay (64). Absorbance at 510 nm was detected using a SpectraMax Reader (Molecular Devices) and analyzed with SoftMax Analysis Software (Molecular Devices). Combinational index (CI) values were calculated using CompuSyn software.

[3] = tested on: SKOV3 CR cells; assay: Cell viability assay (SRB) in SKOV3 CR cells; assay type: cell-based; details: for synergistic effects with cisplatin (combination index): SKOV3 CR cells
Method: as §2, with “Sigma-Aldrich) and PE023 cells (10032313;” left out, “ATCC) was cultured in medium containing 1:1 MCDB 105 (Sigma) and M199 (Sigma) supplemented with 10% FBS at 37 ° C.” left out, “entirety. Cell viability assay. Cells were seeded at 3,000 cells/well in 96-well plates were treated with drugs, followed by incubation for 48 hours, after which cell viability was detected using Sulforhodamine B (SRB) assay (64). Absorbance at 510 nm was detected using a SpectraMax Reader (Molecular Devices) and analyzed with SoftMax Analysis Software (Molecular Devices). Combinational index (CI) values were calculated using CompuSyn software.” for “entirety.”

[4] = tested on: SENP1; assay: SENP1 protein and JAK2 SUMOylation in IGROV1 cells treated with cisplatin (Western blot); assay type: cell-based, human; details: time and dose dependent
Method: as §1

[5] = tested on: JAK2; assay: Cell-free kinase assay with JAK2 purified from treated cells, recombinant STAT3 substrate; assay type: biochemical; details: JAK2 purified from IGROV1 cells treated with inhibitor
Method: Phosphorylation of STAT3 at tyrosine 705 (Y705) by JAK2 is one of the most important and well established cytoplasmic functions of JAK2. To determine whether accumulation of JAK2 in nucleus by depleting SENP1 affected JAK2 cytoplasmic activity, phosphorylated STAT3 (pSTAT3 (Y705)) levels was evaluated in SENP1 depleted IGROV1 cells.
To this end, cell-free kinase assays were performed using JAK2 purified from cells treated with siSENP1 or UAMMC9.

[6] = target: T1, SENP1 (Homo sapiens, UniProt Q9P0U3); assay: In vitro deSUMOylation assay with recombinant His-JAK2 and GST-SENP1; assay type: biochemical; set-up: made in house; host or cells: E. coli BL21 (DE3) for pET28a-JAK2; details: SUMOylated His-JAK2 incubated with GST-SENP1 and compound for 3 hours
T1 sequence (Q9P0U3 1-644): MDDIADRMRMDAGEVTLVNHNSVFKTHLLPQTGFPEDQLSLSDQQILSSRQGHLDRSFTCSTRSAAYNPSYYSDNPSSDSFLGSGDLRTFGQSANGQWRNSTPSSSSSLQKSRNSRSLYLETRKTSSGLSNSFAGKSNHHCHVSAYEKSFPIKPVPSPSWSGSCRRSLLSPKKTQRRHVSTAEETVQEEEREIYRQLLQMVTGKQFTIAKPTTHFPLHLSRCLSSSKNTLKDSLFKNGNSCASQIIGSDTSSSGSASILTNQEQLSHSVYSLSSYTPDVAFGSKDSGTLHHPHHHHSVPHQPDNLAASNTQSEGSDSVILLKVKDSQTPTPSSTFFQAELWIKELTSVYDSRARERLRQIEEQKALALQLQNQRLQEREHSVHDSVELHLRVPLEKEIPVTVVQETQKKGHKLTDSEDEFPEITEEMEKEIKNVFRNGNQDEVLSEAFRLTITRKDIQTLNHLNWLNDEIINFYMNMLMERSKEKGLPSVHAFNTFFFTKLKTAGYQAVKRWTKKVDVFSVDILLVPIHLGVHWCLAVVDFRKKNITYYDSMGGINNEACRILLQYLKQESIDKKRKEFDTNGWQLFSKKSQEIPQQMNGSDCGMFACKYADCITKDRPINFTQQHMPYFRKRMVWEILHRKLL
Method: To further determine whether SENP1 can directly deSUMOylate JAK2, in vitro deSUMOylation assays were performed by using purified recombinant His-JAK2 and GST-SENP1 proteins.
In vitro SUMOylation assay. The SUMOylation reactions were performed according to the manufacture's instruction (BML-UW8955-0001; ENZO). Briefly, 200 nM of purified HIS-JAK2 was suspended in reaction buffer (20 μl) containing Mg-ATP, SUMO E1, SUMO E2 and recombinant SUMOs. RanGAP1 (provided in the kit) was used as the substrate for positive control. The reaction was incubated at 37° C. for 60 minutes and terminated by using 20 μl of SDS loading buffer. […] The reactions were then subjected to Western blot to evaluate SUMOylation level.
Protein expression and purification. pET28a-JAK2 and its mutant was transformed in BL21 (DE3) E. coli cells by heat shot method at 42° C. and grown in Luria Broth (LB) at 37° C. E. coli cells were induced with 0.5 mM IPTG to induct protein expression. Cells were harvested by centrifugation at 5,000 g, 4° C. for 15 min and the pellet was resuspended in lysis buffer (20 mM Tris pH 7.9, 500 mM NaCl, 5 mM imidazole, 2 mM DTT and 1× protease inhibitor cocktail). Cells were then sonicated and centrifuged at 14,000 g, 4° C. for 15 min. 1 ml of Ni-NTA was added to the supernatant and incubated at 4° C. with end-to-end mixing for 2 hours and subjected to a column. The Ni-NTA resin was washed with 10 ml wash buffer (20 mM Tris pH 7.9, 250 mM NaCl, 15 mM Imidazole and 0.5 mM DTT) and eluted with 1 ml elution buffer (20 mM Tris pH 7.9, 250 mM NaCl and 1 M imidazole). The elute was then concentrated by using a protein concentrator (Thermo Scientific™ Pierce™) and resuspend in dialysis buffer (50 mM Tris pH 7.9, 50 mM NaCl, 2 mM DTT, and 10% glycerol). The purified protein was stored at −80° C. pGEX-4T1-SENP1 and its mutant were purified using following buffers: lysis buffer (1 mM DTT, and lx protease inhibitor cocktail, 800 mM NaCl, 5 mM EDTA, 50 mM Tris-pH8.0, 0.1% Triton x-100), wash buffer (800 mM NaCl, 5 mM EDTA, 50 mM Tris-pH8.0, 0.1% Triton x-100), elution buffer (40 mM glutathione, 800 mM NaCl, 5 mM EDTA, 50 mM Tris-pH8.0, 0.1% Triton x-100), dialysis buffer (50 mM Tris pH 7.9, 50 mM NaCl, 2 mM DTT, and 10% glycerol).

Structure (SMILES): N.N.O=C([O-])C1(C(=O)[O-])CCC1.[Pt+2] [Carboplatin, carboplatin]
- SENP1 expression in ovarian tumors (IHC) [1]: significant increase

Structure (SMILES): N.N.[Cl][Pt][Cl] [Cisplatin, cisplatin]
- pIC50 ([2]; cisplatin alone or with 150 nM UAMMC, read-out: Cisplatin IC50 with 150 nM of UAMMCs on IGROV1 CR cells): 4.85
- pIC50 ([3]; cisplatin alone or with 150 nM UAMMC, read-out: Cisplatin IC4 with 150 nM of UAMMCs on SKOV3 CR cells, IC50): 4.91
- JAK2 SUMOylation [4]: decreased
- SENP1 protein level [4]: increased

Structure (SMILES): Cc1cnc(Nc2ccc(OCCN3CCCC3)cc2)nc1Nc1cccc(S(=O)(=O)NC(C)(C)C)c1 [TG101348]
- phosphorylation of recombinant substrate STAT3 proteins by purified JAK2 [5]: decreased phosphorylation

Structure (SMILES): C[C@@H]1CC[C@]2(C(=O)OCCNC(=O)OC(C)(C)C)CC[C@]3(C)C(=CCC4[C@@]5(C)CC[C@H](O)C(C)(C)C5CC[C@]43C)C2[C@H]1C (stereo partly drawn) [UAMMC3]
- toxicity (cell viability) [2]: higher toxicity

Structure (SMILES): C[C@@H]1CC[C@]2(C(=O)OCC(=O)NCCO)CC[C@]3(C)C(=CCC4[C@@]5(C)CC[C@H](O)C(C)(C)C5CC[C@]43C)C2[C@H]1C (stereo partly drawn) [UAMMC5]
- toxicity (cell viability) [2]: higher toxicity

Structure (SMILES): CC1CCC2(C(=O)NCC(=O)N(C)CCO)CCC3(C)C(=CCC4C5(C)CCC(O)C(C)(C)C5CCC43C)C2C1C (stereo not drawn) [UAMMC9]
- decrease of the IC50 of cisplatin ([2]; 150 nM UAMMC9, IGROVI CR cells): 4.19 fold

Structure (SMILES): C[C@H]1[C@H](C)CC[C@]2(C(=O)O)CC[C@]3(C)C(=CC[C@@H]4[C@@]5(C)C[C@@H](O)[C@H](O)C(C)(C)[C@@H]5CC[C@]43C)[C@H]12 [corosolicin acid]
- synergistic effects with cisplatin (combination index) [3]: synergistic effects

Structure (SMILES): CC1(C)CC[C@]2(C(=O)O)[C@H](O)C[C@]3(C)C(=CC[C@@H]4[C@@]5(C)CC[C@H](O)C(C)(C)[C@@H]5CC[C@]43C)[C@H]2C1 [echinocyslic acid]
- synergistic effects with cisplatin (combination index) [3]: synergistic effects

- inhibited SENP1 activity in vitro [6]: inhibited
Structure (SMILES): C[C@@H]1CC[C@]2(C(=O)O)CC[C@]3(C)C(=CC[C@@H]4[C@@]5(C)CC[C@H](O)C(C)(C)[C@@H]5CC[C@]43C)[C@@H]2[C@]1(C)O [pomolic acid]
- synergistic effects with cisplatin (combination index) [3]: synergistic effects

- inhibited SENP1 activity in vitro [6]: inhibited
Structure (SMILES): C[C@@H]1CC[C@]2(C(=O)O)CC[C@]3(C)C(=CC[C@@H]4[C@@]5(C)C[C@@H](O)[C@H](O)C(C)(C)[C@@H]5CC[C@]43C)[C@@H]2[C@]1(C)O [tormentic acid]
- synergistic effects with cisplatin (combination index) [3]: synergistic effects
